Measurements published in patent US6171575A, “Method of radioisotopic assessment of the integrity and function of the nose-brain barrier” (priority 1998, dated 2001).
“Also recorded” adds a separate entry of the source. Where two headings read alike, the source gives them in different places.

Experiments:
[1] = in vivo
Source text: (§1) A. The radiopharmaceutical was sprayed deep into the nose through the nostril as the examinee laid on the scintigraphic table with the head placed in vertical position. B. The resultant radioactivity residing on the olfactory mucosa. C. The region of interest (ROI) placed just beneath the nose-brain barrier on the (cathode Ray Tube) so as to record the penetrating radioactivity. D. Pharyngeal radioactivity escaped from the olfactory pit.
(§2) The mixture was sprayed into the depth of the nose. […] In order to protect the nasal mucosa, vinyl tubing was attached to the end of the nozzle of a sprayer. As the head of an examinee was positioned vertically, so as to allow the droplets to fall onto the olfactory mucosa, the examiner sprayed the mixture deep into one of the nostrils; and
(§3) (2) Assessing the radioisotopic penetration across the NBB The radioisotopic spray side of the head of an examinee was placed against the detector collimator of a gamma camera for 10 minutes. Radioisotopic penetration was defined as the amount of radioactivity recorded in the regions of interest (ROIs) placed over the intracranial space adjoing the cribrijon lamine. The change of the recorded radioactivity in this ROI was analyzed along with that in a remote control brain area.
(§4) Test were performed to determine the penetration potential of radio-pharmaceuticals of ^99m Tc-HMPAO and ^99m Tc-DTPA.

[2] = agent that circulates in the blood; cited from earlier work
[3] = renogrammatic analysis; imaging and dynamic studies of cerebrospinal fluid flow; cited from earlier work
[4] = Radioisotopic penetration across the nose-brain barrier (NBB) after intranasal spray, gamma camera ROI
Source text: as §1, §2, §3, §4

[5] = cited from earlier work

SMILES | passage of the nose-brain barrier [1] | passage through the blood-brain barrier [2] | extracellular spreading [3] | radioisotopic penetration across the NBB (radioactivity in juxta-cribriform brain ROI) ([4]; healthy person, intranasal spray, 10 minutes gamma camera) | passage of the nose-brain barrier ([4]; overall conclusion, human beings, olfactory pathology and/or healthy control) | time after which radioactivity in the juxta-cribriform brain increased significantly ([4]; person with anosmia, left nostril) [min] | radioisotopic penetration across the NBB (radioactivity in juxta-cribriform brain ROI) ([4]; person with anosmia, left nostril, 148 MBq per 0.2 ml puff (example preparation)) | water solubility [5]
C/C(=N\[O-])[C@@H](C)[N-]CC(C)(C)C[N-][C@H](C)/C(C)=N/O.[O]=[99Tc+3] (racemic) [^99m Tc-HMPAO] | shown not to pass the nose-brain barrier | passes through the blood-brain barrier | – | – | – | – | – | –
O=C([O-])CN(CCN(CC(=O)[O-])CC(=O)[O-])CCN(CC(=O)[O-])CC(=O)[O-].[99Tc+4] [^99m Tc-DTPA, 99mTc-diethylenetriaminepenta-acetic acid] | – | – | spreads extracellularly | the change was statistically insignificant; also recorded: increased but without any statistical significance | shown to pass the nose-brain barrier | 5 | significant increase in radioactivity in the juxta-cribriform lamional brain; also recorded: increased significantly | water-soluble
